Reference: ChEMBL document CHEMBL1687760, “Secondary integrase resistance mutations found in HIV-1 minority quasispecies in integrase therapy-naive patients have little or no effect on susceptibility to integrase inhibitors” (Antimicrob Agents Chemother, 2010)

How the values were obtained:
Assay type in all cases: functional
[1] = test system: Human immunodeficiency virus 1; assay: Antiviral activity against Human immunodeficiency virus 1 clone 50_2 harboring integrase R20K, A23V, E92G, T124N, I141V, G193E, V201I, T206S, I220V, D279G infected in human MT4 cells assessed as inhibition of virus induced cytopathic effect relative to wild type HIV1
[2] = test system: Human immunodeficiency virus 1; assay: Antiviral activity against Human immunodeficiency virus 1 clone 2 harboring integrase R20K, A23V, E92G, T124N, I141V, G193E, V201I, T206S, I220V, D279G mutant gene relative to wild type HIV1
[3] = test system: Human immunodeficiency virus 1; assay: Antiviral activity against Human immunodeficiency virus 1 3B harboring integrase L74M mutant infected in human MT4 cells assessed as inhibition of virus induced cytopathic effect relative to wild type HIV1
[4] = test system: Human immunodeficiency virus 1; assay: Antiviral activity against Human immunodeficiency virus 1 3B harboring integrase S119G mutant infected in human MT4 cells assessed as inhibition of virus induced cytopathic effect relative to wild type HIV1
[5] = test system: Human immunodeficiency virus 1; assay: Antiviral activity against Human immunodeficiency virus 1 clone 12 harboring integrase E11D, S17T, L45V, M50T, I72V, L74I, K111T, S119G, T125A relative to wild type HIV1
[6] = test system: Human immunodeficiency virus 1; assay: Antiviral activity against Human immunodeficiency virus 1 clone 16 harboring integrase S17N, T124N, T125A, M154I, S195C, V201I mutant gene relative to wild type HIV1
[7] = test system: Human immunodeficiency virus 1; assay: Antiviral activity against Human immunodeficiency virus 1 clone 17 harboring integrase S17N, T124N, T125A, M154I, S195C mutant gene relative to wild type HIV1
[8] = test system: Human immunodeficiency virus 1; assay: Antiviral activity against Human immunodeficiency virus 1 clone 8 harboring integrase E11D, S17T, L45V, M50T, S57G, L74I, K111T, S119G, T125A relative to wild type HIV1
[9] = test system: Human immunodeficiency virus 1; assay: Antiviral activity against Human immunodeficiency virus 1 3B harboring integrase E92Q mutant infected in human MT4 cells assessed as inhibition of virus induced cytopathic effect relative to wild type HIV1
[10] = test system: Human immunodeficiency virus 1; assay: Antiviral activity against Human immunodeficiency virus 1 3B harboring integrase V151I mutant infected in human MT4 cells assessed as inhibition of virus induced cytopathic effect relative to wild type HIV1
[11] = test system: Human immunodeficiency virus 1; assay: Antiviral activity against Human immunodeficiency virus 1 3B harboring integrase T206S mutant infected in human MT4 cells assessed as inhibition of virus induced cytopathic effect relative to wild type HIV1
[12] = test system: Human immunodeficiency virus 1; assay: Antiviral activity against Human immunodeficiency virus 1 3B harboring integrase S230N mutant infected in human MT4 cells assessed as inhibition of virus induced cytopathic effect relative to wild type HIV1
[13] = test system: Human immunodeficiency virus 1; assay: Antiviral activity against Human immunodeficiency virus 1 clone 9 harboring integrase E11D, S17T, L45V, M50T, I72V, L74I, K111T, S119G, relative to wild type HIV1
[14] = test system: Human immunodeficiency virus 1; assay: Antiviral activity against Human immunodeficiency virus 1 3B harboring integrase V201I mutant infected in human MT4 cells assessed as inhibition of virus induced cytopathic effect relative to wild type HIV1
[15] = test system: Human immunodeficiency virus 1; assay: Antiviral activity against Human immunodeficiency virus 1 clone 11 harboring integrase S17N, I84I, T124N, T125A, M154I, S195C mutant gene relative to wild type HIV1
[16] = test system: Human immunodeficiency virus 1; assay: Antiviral activity against Human immunodeficiency virus 1 clone 4 harboring integrase R20K, A23V, T124N, I141V, G193E, V201I, T206S, I220V, D279G mutant gene relative to wild type HIV1
[17] = test system: Human immunodeficiency virus 1; assay: Antiviral activity against Human immunodeficiency virus 1 clone 18_13 harboring integrase S17N, T124N, T125A, G140S, M154I, S195C infected in human MT4 cells assessed as inhibition of virus induced cytopathic effect relative to wild type HIV1
[18] = test system: Human immunodeficiency virus 1; assay: Antiviral activity against Human immunodeficiency virus 1 clone 14 harboring integrase S17N, T124N, T125A, M154I, S195C, V201I mutant gene relative to wild type HIV1
[19] = test system: Human immunodeficiency virus 1; assay: Antiviral activity against Human immunodeficiency virus 1 clone 4 harboring integrase S17N, S57G, I84I, T124N, T125A, M154I, S195C mutant gene relative to wild type HIV1
[20] = test system: Human immunodeficiency virus 1; assay: Antiviral activity against Human immunodeficiency virus 1 clone 13 harboring integrase R20K, A23V, T124N, G193E, V201I, T206S, I268V, I220V mutant gene relative to wild type HIV1
[21] = test system: Human immunodeficiency virus 1; assay: Antiviral activity against Human immunodeficiency virus 1 clone 13 harboring integrase E11D, S17T, L45V, M50T, I72V, L74I, K111T, S119G, T125A relative to wild type HIV1
[22] = test system: Human immunodeficiency virus 1; assay: Antiviral activity against Human immunodeficiency virus 1 3B harboring integrase L74I mutant infected in human MT4 cells assessed as inhibition of virus induced cytopathic effect relative to wild type HIV1
[23] = test system: Human immunodeficiency virus 1; assay: Antiviral activity against Human immunodeficiency virus 1 3B harboring integrase E157Q mutant infected in human MT4 cells assessed as inhibition of virus induced cytopathic effect relative to wild type HIV1

Row | Structure (SMILES) | fold change (FC) [1] | fold change (FC) [2] | fold change (FC) [3] | fold change (FC) [4] | fold change (FC) [5] | fold change (FC) [6] | fold change (FC) [9] | fold change (FC) [16] | fold change (FC) [17] | fold change (FC) [18] | fold change (FC) [20] | also measured
1 | COc1cc2c(cc1Cc1cccc(Cl)c1F)c(=O)c(C(=O)O)cn2[C@H](CO)C(C)C [ELVITEGRAVIR] | 13 | 13 | 0.7 | 1 | 1 | 1 | 20.8 | 0.7 | 5.6 | 1.3 | 0.8 | fold change (FC) [7]: 1; fold change (FC) [8]: 0.8; fold change (FC) [10]: 0.6; fold change (FC) [11]: 1.1; fold change (FC) [12]: 0.8; fold change (FC) [13]: 1; fold change (FC) [14]: 0.9; fold change (FC) [15]: 0.9; fold change (FC) [19]: 1.4
2 | Cc1nnc(C(=O)NC(C)(C)c2nc(C(=O)NCc3ccc(F)cc3)c(O)c(=O)n2C)o1 [RALTEGRAVIR] | 1.8 | 1.8 | 0.9 | 1.1 | 1.1 | 1.3 | 3.8 | 0.2 | 2.4 | 1.8 | 0.8 | fold change (FC) [21]: 2; fold change (FC) [22]: 1.2; fold change (FC) [23]: 1.2
